As a reminder, the EC50 is the midpoint of the concentration-response curve. In general, AUC(0-t) refers to exposure summed from dosing to a finite time, without extrapolation to infinity. A word on the bioavailability: it is dose-corrected exposure relative to a reference, in per cent. Broadly, the DC50 is the midpoint of the concentration-degradation curve. As usually defined, the AUC(0-inf) is the area under the concentration-time curve extrapolated to infinity. Read a high AUC(0-inf) as more exposure. Broadly, the half-life is the time in which the quantity being followed falls by half. A high value points to slow decline. As a reminder, the MRT last is the average time that molecules of a dose stay in the body.

Structures are written as SMILES. Calls of active or inactive are those of the source. The rule behind the calls is not given here.

Data on 1 compound can be found in ChEMBL document CHEMBL5380833 (J Med Chem, 2023).

The nature of data set [1]: Toxicity in Balb/c mouse assessed as side effects at 5 mg/kg, iv measured upto 24 hrs by LC-MS/MS analysis. It counts as organism-based. As to conditions: in vivo.
The nature of data set [2]: Volume of distribution at steady state in Balb/c mouse at 10 mg/kg, ip measured upto 24 hrs by LC-MS/MS analysis. It counts as ADME, organism-based. As to conditions: in vivo.
The target of data set [3] is Interleukin-2 (Homo sapiens, UniProt P60568). Nature of the data set: Inhibition of IL-2 in human Jurkat cells pretreated with compound for 4 hrs followed by anti-CD3/CD28 stimulation by ELISA analysis. The data set is classed as cell-based. In general terms: In an ELISA, binding on a coated surface is turned into a signal by an enzyme label.
Data set [4] can be described thus: AUC (0 to t) in Balb/c mouse at 10 mg/kg, ip measured upto 24 hrs by LC-MS/MS analysis. As to conditions: in vivo. It counts as ADME, organism-based. Set-up: time < 24 hrs, dose 10 mg/kg, route ip.
A short description of data set [5]: MRT last in Balb/c mouse at 5 mg/kg, iv measured upto 24 hrs by LC-MS/MS analysis. It counts as ADME, organism-based. Conditions: in vivo, iv, 5 mg/kg, 24 h.
Data set [6] is described as follows: Toxicity in Balb/c mouse assessed as side effects at 10 mg/kg, ip measured upto 24 hrs by LC-MS/MS analysis. Conditions: in vivo. The data set is classed as organism-based.
In data set [7] the target is T1, Tyrosine-protein kinase ZAP-70 (Homo sapiens) (UniProt P43403).
T1 sequence (whole entry): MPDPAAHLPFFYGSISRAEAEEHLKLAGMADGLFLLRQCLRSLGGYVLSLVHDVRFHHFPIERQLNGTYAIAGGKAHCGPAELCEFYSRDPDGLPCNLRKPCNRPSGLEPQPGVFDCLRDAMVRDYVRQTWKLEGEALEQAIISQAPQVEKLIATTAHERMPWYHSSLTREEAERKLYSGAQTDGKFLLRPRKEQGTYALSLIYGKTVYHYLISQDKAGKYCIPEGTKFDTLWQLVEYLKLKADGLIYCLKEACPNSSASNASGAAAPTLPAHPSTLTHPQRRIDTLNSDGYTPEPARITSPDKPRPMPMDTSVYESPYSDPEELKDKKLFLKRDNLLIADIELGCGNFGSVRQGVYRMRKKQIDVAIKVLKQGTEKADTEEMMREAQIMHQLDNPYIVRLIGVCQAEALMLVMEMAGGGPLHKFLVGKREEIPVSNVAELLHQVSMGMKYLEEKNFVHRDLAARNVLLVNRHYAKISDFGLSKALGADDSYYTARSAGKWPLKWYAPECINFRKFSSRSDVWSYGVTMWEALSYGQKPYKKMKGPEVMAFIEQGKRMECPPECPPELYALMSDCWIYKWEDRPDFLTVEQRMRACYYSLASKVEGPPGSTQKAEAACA
The experiment in a line: Induction of degradation of ZAP-70 in human Jurkat cells at 0.01 to 10 uM by immunoblotting analysis. The data set is classed as cell-based. As to conditions: dose 0.01-10 µM. (A western blot detects proteins with antibodies after separation by electrophoresis.)

Data set [8] addresses T2, Protein cereblon/Tyrosine-protein kinase ITK/TSK (Homo sapiens, UniProt Q08881+Q96SW2). Nature of the data set: PROTAC activity at CRBN/ITK in human Jurkat cells assessed as residual activity at 10 uM incubated for 16 hrs relative to control. The data set is classed as cell-based.
Target sequence in this assay (Q08881 whole entry, looked up): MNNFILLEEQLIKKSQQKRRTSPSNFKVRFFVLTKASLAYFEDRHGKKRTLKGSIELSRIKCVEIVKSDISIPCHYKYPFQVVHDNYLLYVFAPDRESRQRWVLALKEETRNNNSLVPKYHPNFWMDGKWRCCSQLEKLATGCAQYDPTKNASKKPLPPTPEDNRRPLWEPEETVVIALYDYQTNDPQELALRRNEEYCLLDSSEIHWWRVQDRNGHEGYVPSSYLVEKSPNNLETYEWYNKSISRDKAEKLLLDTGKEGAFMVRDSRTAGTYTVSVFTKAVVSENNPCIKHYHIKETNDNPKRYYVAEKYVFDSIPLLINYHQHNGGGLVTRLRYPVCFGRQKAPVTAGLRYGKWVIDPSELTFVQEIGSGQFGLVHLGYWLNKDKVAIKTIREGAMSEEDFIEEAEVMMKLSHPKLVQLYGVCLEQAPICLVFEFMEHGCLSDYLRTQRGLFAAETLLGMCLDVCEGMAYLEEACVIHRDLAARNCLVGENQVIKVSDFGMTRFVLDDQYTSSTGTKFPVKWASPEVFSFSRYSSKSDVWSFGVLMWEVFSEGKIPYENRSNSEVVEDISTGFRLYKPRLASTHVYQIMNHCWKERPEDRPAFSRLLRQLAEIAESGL
Target sequence in this assay (Q96SW2 whole entry, looked up): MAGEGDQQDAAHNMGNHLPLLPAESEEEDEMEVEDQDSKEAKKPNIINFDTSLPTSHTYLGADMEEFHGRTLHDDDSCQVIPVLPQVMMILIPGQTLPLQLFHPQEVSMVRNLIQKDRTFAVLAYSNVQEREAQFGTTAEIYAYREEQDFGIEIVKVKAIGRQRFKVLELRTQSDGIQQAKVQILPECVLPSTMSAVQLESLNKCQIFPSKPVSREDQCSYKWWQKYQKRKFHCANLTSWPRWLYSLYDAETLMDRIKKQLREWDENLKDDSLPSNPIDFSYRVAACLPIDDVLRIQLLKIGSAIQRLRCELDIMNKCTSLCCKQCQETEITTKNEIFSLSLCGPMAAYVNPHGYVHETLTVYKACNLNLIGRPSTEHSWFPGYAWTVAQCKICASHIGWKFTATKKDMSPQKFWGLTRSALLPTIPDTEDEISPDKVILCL
In data set [9] the test system is Jurkat. The experiment in a line: Inhibition of TCR signalling in human Jurkat cells assessed as reduction in ERK(T202/Y204) phosphorylation preincubated with cells for 12 hrs followed by anti-CD-2 antibody stimulation for 5 mins by Western blot analysis. The data set is classed as cell-based. As to conditions: dose 0.01-3 µM.
Data set [10] can be described thus: Bioavailability in Balb/c mouse at 10 mg/kg, ip measured upto 24 hrs by LC-MS/MS analysis. It counts as ADME, organism-based. As to conditions: in vivo.
Data set [11] concerns the target T2, Protein cereblon/Tyrosine-protein kinase ITK/TSK. Nature of the data set: PROTAC activity at CRBN/ITK in human MOLT-4 cells assessed as induction of ITK degradation. The data set is classed as cell-based.
Target sequence in this assay (Q08881 whole entry): as the sequence (Q08881 whole entry, looked up) above
Target sequence in this assay (Q96SW2 whole entry): as the sequence (Q96SW2 whole entry, looked up) above
A short description of data set [12]: AUC (0 to infinity) in Balb/c mouse at 10 mg/kg, ip measured upto 24 hrs by LC-MS/MS analysis. The data set is classed as ADME, organism-based. On the set-up: dose 10 mg/kg, time < 24 hrs, route ip. Conditions: in vivo.
Data set [13] is described as follows: Half life in Balb/c mouse at 5 mg/kg, iv measured upto 24 hrs by LC-MS/MS analysis. It counts as ADME, organism-based. Conditions: in vivo.
Data set [14] in a line: AUC (0 to infinity) in Balb/c mouse at 5 mg/kg, iv measured upto 24 hrs by LC-MS/MS analysis. The data set is classed as ADME, organism-based. On the set-up: time < 24 hrs, dose 5 mg/kg, route iv. As to conditions: in vivo.
A short description of data set [15]: MRT last in Balb/c mouse at 10 mg/kg, ip measured upto 24 hrs by LC-MS/MS analysis. It counts as ADME, organism-based. Conditions: in vivo.
The nature of data set [16]: Toxicity in Balb/c mouse assessed as drug tolerance at 10 mg/kg, ip measured upto 24 hrs by LC-MS/MS analysis. It counts as organism-based. Conditions: in vivo.
The target in data set [17] is T2, Protein cereblon/Tyrosine-protein kinase ITK/TSK. The experiment in a line: PROTAC activity at CRBN/ITK in Jurkat cells assessed as induction of ITK degradation at 100 nM pretreated with GNE-9822 for 1 hr followed by compound addition and measured after 2 hrs by Western blot analysis. The data set is classed as cell-based.
Target sequence in this assay (Q08881 whole entry, looked up): as the sequence (Q08881 whole entry, looked up) above
Target sequence in this assay (Q96SW2 whole entry, looked up): as the sequence (Q96SW2 whole entry, looked up) above
The target of data set [18] is Tyrosine-protein kinase BTK (Homo sapiens) (UniProt Q06187). Nature of the data set: Induction of degradation of BTK in human Ramos cells at 0.01 to 10 uM by immunoblotting analysis. It counts as cell-based. Conditions: dose 0.01-10 µM.
The target of data set [19] is T2, Protein cereblon/Tyrosine-protein kinase ITK/TSK. Nature of the data set: PROTAC activity at CRBN/ITK in human Jurkat cells assessed as induction of ITK degradation at 100 nM pretreated with proteosome inhibitor carfilzomib for 1 hr followed by compound addition and measured after 2 hrs by Western blot analysis. It counts as cell-based.
Target sequence in this assay (Q08881 whole entry, looked up): as the sequence (Q08881 whole entry, looked up) above
Target sequence in this assay (Q96SW2 whole entry, looked up): as the sequence (Q96SW2 whole entry, looked up) above
Data set [20] has the same target. Nature of the data set: PROTAC activity at CRBN/ITK in human Jurkat cells assessed as induction of ITK degradation at 100 nM pretreated with MLN4924 for 1 hr followed by compound addition and measured after 2 hrs by Western blot analysis. It counts as cell-based.
Target sequence in this assay (Q08881 whole entry, looked up): as the sequence (Q08881 whole entry, looked up) above
Target sequence in this assay (Q96SW2 whole entry, looked up): as the sequence (Q96SW2 whole entry, looked up) above
The target is the same in data set [21]. The experiment in a line: PROTAC activity at CRBN/ITK in human Jurkat cells assessed as induction of ITK degradation by Western blot analysis. It counts as cell-based. As to conditions: read-out: EC50.
Target sequence in this assay (Q08881 whole entry): as the sequence (Q08881 whole entry, looked up) above
Target sequence in this assay (Q96SW2 whole entry): as the sequence (Q96SW2 whole entry, looked up) above
The target is the same in data set [22]. Nature of the data set: PROTAC activity at CRBN/ITK in human Jurkat cells assessed as downregulation of ITK protein at 100 nM preincubated with cells for 12 hrs followed by compound washout measured after 24 hrs. It counts as cell-based.
Target sequence in this assay (Q08881 whole entry, looked up): as the sequence (Q08881 whole entry, looked up) above
Target sequence in this assay (Q96SW2 whole entry, looked up): as the sequence (Q96SW2 whole entry, looked up) above
Data set [23] has as its target T3, Tyrosine-protein kinase TXK (Homo sapiens) (UniProt P42681).
T3 sequence (whole entry): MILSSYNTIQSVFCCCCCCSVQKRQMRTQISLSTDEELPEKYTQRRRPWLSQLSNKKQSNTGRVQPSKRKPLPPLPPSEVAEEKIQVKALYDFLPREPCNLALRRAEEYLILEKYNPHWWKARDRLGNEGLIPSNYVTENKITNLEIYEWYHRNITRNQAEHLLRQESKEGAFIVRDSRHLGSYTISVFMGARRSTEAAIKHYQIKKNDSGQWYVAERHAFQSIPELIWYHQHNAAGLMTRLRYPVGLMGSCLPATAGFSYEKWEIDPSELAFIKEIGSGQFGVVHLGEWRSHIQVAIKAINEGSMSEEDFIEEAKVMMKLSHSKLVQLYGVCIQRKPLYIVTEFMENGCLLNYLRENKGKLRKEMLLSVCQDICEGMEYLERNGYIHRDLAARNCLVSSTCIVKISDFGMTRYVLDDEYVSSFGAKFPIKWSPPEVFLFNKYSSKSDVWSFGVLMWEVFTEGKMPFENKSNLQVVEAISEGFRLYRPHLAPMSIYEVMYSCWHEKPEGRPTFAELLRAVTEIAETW
Nature of the data set: Induction of degradation of RLK in human Jurkat cells at 0.01 to 10 uM by immunoblotting analysis. As to conditions: dose 0.01-10 µM. The data set is classed as cell-based.

Data set [24] can be described thus: Half life in Balb/c mouse at 10 mg/kg, ip measured upto 24 hrs by LC-MS/MS analysis. It counts as ADME, organism-based. As to conditions: in vivo.

Sequence of Interleukin-2 (P60568 whole entry): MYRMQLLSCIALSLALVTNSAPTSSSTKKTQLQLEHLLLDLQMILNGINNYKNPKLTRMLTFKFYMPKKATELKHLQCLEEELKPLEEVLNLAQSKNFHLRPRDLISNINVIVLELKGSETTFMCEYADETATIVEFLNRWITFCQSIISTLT
Sequence of Tyrosine-protein kinase BTK (Homo sapiens) (Q06187 whole entry): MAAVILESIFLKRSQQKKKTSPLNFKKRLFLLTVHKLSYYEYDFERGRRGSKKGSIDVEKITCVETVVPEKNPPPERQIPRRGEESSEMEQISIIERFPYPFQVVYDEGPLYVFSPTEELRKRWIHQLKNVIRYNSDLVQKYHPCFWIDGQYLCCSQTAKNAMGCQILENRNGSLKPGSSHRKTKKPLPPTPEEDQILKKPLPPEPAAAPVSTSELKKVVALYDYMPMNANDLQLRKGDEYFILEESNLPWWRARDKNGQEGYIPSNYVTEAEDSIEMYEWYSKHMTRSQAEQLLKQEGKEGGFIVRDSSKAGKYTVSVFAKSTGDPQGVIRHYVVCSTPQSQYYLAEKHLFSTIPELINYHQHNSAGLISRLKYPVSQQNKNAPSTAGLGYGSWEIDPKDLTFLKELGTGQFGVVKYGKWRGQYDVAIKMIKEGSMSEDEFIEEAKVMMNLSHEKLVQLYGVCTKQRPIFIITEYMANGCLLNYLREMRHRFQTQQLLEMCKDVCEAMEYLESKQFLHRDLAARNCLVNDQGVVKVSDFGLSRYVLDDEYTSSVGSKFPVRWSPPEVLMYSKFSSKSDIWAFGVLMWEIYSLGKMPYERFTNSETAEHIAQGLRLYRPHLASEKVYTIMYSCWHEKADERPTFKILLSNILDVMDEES

Take `CN(CCCCCC(=O)Nc1ccc2c(c1)C(=O)N(C1CCC(=O)NC1=O)C2=O)CC[C@@H](c1ccccc1)n1cc(NC(=O)c2n[nH]c3c2CCC(C)(C)C3)cn1.O=C(O)C(F)(F)F` (some centres undefined): the Activity entry is “Non-Toxic” in data set [1], “Non-Toxic” in [6], 12% in data set [8] and “Non-Toxic” in [16]. The Vdss in data set [2] was determined as 18.4 L/kg. In addition, the values for the EC50 in [3] and in data set [21] were 25.3 nM and 7 nM, respectively. Moreover, the AUC(0-t) at 24 h in [4] is 1560 ng·h/mL. In addition, the MRTlast in [5] came out at 0.39 h. Further, the outcome in [7], in data set [17], in [18], in data set [19], in data set [20] and in [23] was inactive. Further, in data set [9], the inhibition result is “Dose-Dependent Effect”. The same compound came in with a bioavailability in [10] of 73.5%. Besides, in data set [11], the DC50 stood at 6 nM. In addition, the AUC(0-inf) is 1590 ng·h/mL in data set [12] and 1080 ng·h/mL in [14]. In addition, the half-life was 1.88 h in data set [13] and 1.95 h in data set [24]. In addition, in [15], the MRT last at 24 h came to 1.06 h. Moreover, the result in [22] was Active.
